Patent US7390812B2, “N, N'-disubstituted piperazine compounds and their use as analgesics” (Gruenenthal GmbH, priority 2001, dated 2008)

These compounds were tested against T1, NA transporter (Rattus norvegicus, UniProt Q63380) (assay: Noradrenaline reuptake inhibition (NA uptake inhibition) in synaptosomes). Settings: synaptosomes from hypothalamus of male rat brains.
T1 construct: synaptosomes were freshly isolated from rat brain regions; from tissue; host or cells: rat hypothalamus synaptosomes (P2 fraction)
T1 sequence (Q63380 1-617): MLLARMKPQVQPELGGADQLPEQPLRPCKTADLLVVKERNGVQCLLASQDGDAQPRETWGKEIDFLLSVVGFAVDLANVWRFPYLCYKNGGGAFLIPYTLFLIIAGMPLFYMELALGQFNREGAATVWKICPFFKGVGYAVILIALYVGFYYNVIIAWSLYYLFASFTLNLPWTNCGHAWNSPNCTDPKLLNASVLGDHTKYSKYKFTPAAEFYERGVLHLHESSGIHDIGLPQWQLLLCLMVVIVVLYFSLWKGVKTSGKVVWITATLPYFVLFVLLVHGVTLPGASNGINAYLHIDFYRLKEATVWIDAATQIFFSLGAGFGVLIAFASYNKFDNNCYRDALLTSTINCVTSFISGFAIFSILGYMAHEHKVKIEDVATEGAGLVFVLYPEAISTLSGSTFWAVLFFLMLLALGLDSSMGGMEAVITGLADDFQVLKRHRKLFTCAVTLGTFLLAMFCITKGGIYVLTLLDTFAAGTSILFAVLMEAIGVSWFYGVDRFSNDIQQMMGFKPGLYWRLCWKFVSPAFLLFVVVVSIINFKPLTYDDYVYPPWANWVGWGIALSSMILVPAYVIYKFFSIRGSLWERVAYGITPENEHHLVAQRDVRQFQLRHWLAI
Assay type: biochemical
Experimental: In order to be able to carry out these in vitro studies, synaptosomes were freshly isolated from rat brain regions. A so-called “P2” fraction was used, which was prepared according to the instructions given by Gray and Whittaker (E. G. Gray and V. P. Whittaker (1962) J. Anat. 76, 79-88).

Point of comparison: `CCC(O)(Cc1ccc(Cl)cc1)C(C)CN1CCN(c2cccc(Cl)c2)CC1` (centres unmarked) [3-(4-Chloro-benzyl)-1-[4-(3-chloro-phenyl)-piperazin-1-yl]-2-methyl-pentan-3-ol], inhibition at 10 µM 39%. Against it:
- CCC(O)(c1cccc(C(F)(F)F)c1)C(C)CN1CCN(c2cccc(Cl)c2)CC1 (centres unmarked) [1-[4-(3-Chloro-phenyl)-piperazin-1-yl]-2-methyl-3-(3-trifluoromethyl-phenyl)-pentan-3-ol] — higher, 65%
- CCC(O)(c1cccs1)C(C)CN1CCN(c2cccc(Cl)c2)CC1 (centres unmarked) [1-[4-(3-Chloro-phenyl)-piperazin-1-yl]-2-methyl-3-thiophen-2-yl-pentan-3-ol] — higher, 45%
- CCC(O)(c1ccc(OC)cc1)C(C)CN1CCN(c2cccc(Cl)c2)CC1 (centres unmarked) [1-[4-(3-Chloro-phenyl)-piperazin-1-yl]-3-(4-methoxy-phenyl)-2-methyl-pentan-3-ol] — higher, 45%
- C=CC(O)(CC)C(C)CN1CCN(c2cccc(Cl)c2)CC1 (centres unmarked) [5-[4-(3-Chloro-phenyl)-piperazin-1-yl]-3-ethyl-4-methyl-pent-1-en-3-ol] — higher, 53%
- CCC(O)(c1ccc(F)c(C)c1)C(C)CN1CCN(c2cccc(Cl)c2)CC1 (centres unmarked) [1-[4-(3-Chloro-phenyl)-piperazin-1-yl]-3-(4-fluoro-3-methyl-phenyl)-2-methyl-pentan-3-ol] — the same, 39%
- CCC(O)(c1cccc(Cl)c1)C(C)CN1CCN(c2cccc(Cl)c2)CC1 (centres unmarked) [3-(3-Chloro-phenyl)-1-[4-(3-chloro-phenyl)-piperazin-1-yl]-2-methyl-pentan-3-ol] — higher, 53%
- CCC(O)(c1cccc(C)c1)C(C)CN1CCN(c2cccc(Cl)c2)CC1 (centres unmarked) [1-[4-(3-Chloro-phenyl)-piperazin-1-yl]-2-methyl-3-m-tolyl-pentan-3-ol] — higher, 42%
- CCC(O)(C(C)CN1CCN(c2cccc(Cl)c2)CC1)C1CCCCC1 (centres unmarked) [1-[4-(3-Chloro-phenyl)-piperazin-1-yl]-3-cyclohexyl-2-methyl-pentan-3-ol] — higher, 73%
- CCC(O)(CCc1ccccc1)C(C)CN1CCN(c2cccc(Cl)c2)CC1 (centres unmarked) [1-[4-(3-Chloro-phenyl)-piperazin-1-yl]-3-ethyl-2-methyl-5-phenyl-pentan-3-ol] — higher, 52%

What follows are compounds tested on binding site 2 of the sodium channel (assay: Binding investigations at sodium channel binding site 2 (BTX binding)). Settings: 10 μM; rat cerebrocortex synaptosomes; [3H]-Batrachotoxinin A20 α-benzoate 10 nM; 37° C., 120 min.
Experimental: Binding Investigations at Sodium Channel Binding Site 2
Binding site 2 of the sodium channel is the so-called batrachotoxin (BTX) binding site. [^3H]-Batrachotoxinin A20 α-benzoate (10 nM in the batch) was used as ligand. These ion channel particles (synaptosomes) were enriched from rat cerebrocortex after Gray and Whittaker (E. G. Gray and V. P. Whittaker (1962) J. Anat. 76, 79-88). The radioactivity measured in the presence of veratridine (0.3 mM in the batch) is defined as non-specific binding.
The assay conditions were as published by Pauwels, Leysen and Laduron (P. J. Pauwels, J. E. Leysen and P. M. Laduron (1986) Eur. J. Pharmacol. 124, 291-298). Incubation at 37° C. for 120 min.

Point of comparison: `CN1CCN(CC2CCCCCC2(O)C2CCCC2)CC1` (centres unmarked) [1-Cyclopentyl-2-(4-methyl-piperazin-1-ylmethyl)-cycloheptanol], “BTX binding at 10 μM [%] inhibition” value 55%. Against it:
- CN1CCN(CC2CCCCC2(O)CCCc2ccccc2)CC1 (centres unmarked) [2-(4-Methyl-piperazin-1-ylmethyl)-1-(3-phenyl-propyl)-cyclohexanol] — higher, 80%
- CCC(O)(c1ccc(C)cc1)C(C)CN1CCN(C)CC1 (centres unmarked) [2-Methyl-1-(4-methyl-piperazin-1-yl)-3-p-tolyl-pentan-3-ol] — lower, 48%
- CN1CCN(CC2CCCCC2(O)c2ccc(Cl)cc2Cl)CC1 (centres unmarked) [1-(2,4-Dichloro-phenyl)-2-(4-methyl-piperazin-1-ylmethyl)-cyclohexanol] — the same, 55%
- CCC(O)(c1cccs1)C(C)CN1CCN(C)CC1 (centres unmarked) [2-Methyl-1-(4-methyl-piperazin-1-yl)-3-thiophen-2-yl-pentan-3-ol] — lower, 47%
- CN1CCN(CC2CCCCC2(O)C2CCCC2)CC1 (centres unmarked) [1-Cyclopentyl-2-(4-methyl-piperazin-1-ylmethyl)-cyclohexanol] — lower, 49%
- CN1CCN(CC2CCCCCC2(O)Cc2ccccc2)CC1 (centres unmarked) [1-Benzyl-2-(4-methyl-piperazin-1-ylmethyl)-cycloheptanol] — higher, 86%
- CCC(O)(C(C)CN1CCN(C)CC1)C1CCCCC1 (centres unmarked) [3-Cyclohexyl-2-methyl-1-(4-methyl-piperazin-1-yl)-pentan-3-ol] — higher, 59%
- CN1CCN(CC2CCCCCCC2(O)c2cccs2)CC1 (centres unmarked) [2-(4-Methyl-piperazin-1-ylmethyl)-1-thiophen-2-yl-cyclooctanol] — higher, 64%
- CCC(O)(c1ccccc1)C(C)CN1CCN(C)CC1 (centres unmarked) [2-Methyl-1-(4-methyl-piperazin-1-yl)-3-phenyl-pentan-3-ol] — higher, 58%
- Cc1ccccc1C1(O)CCCCC1CN1CCN(C)CC1 (centres unmarked) [2-(4-Methyl-piperazin-1-ylmethyl)-1-o-tolyl-cyclohexanol] — lower, 50%
- CCC(O)(c1ccc(F)c(C)c1)C(C)CN1CCN(C)CC1 (centres unmarked) [3-(4-Fluoro-3-methyl-phenyl)-2-methyl-1-(4-methyl-piperazin-1-yl)-pentan-3-ol] — higher, 56%
- CN1CCN(CC2CCCCC2(O)Cc2ccccc2)CC1 (centres unmarked) [1-Benzyl-2-(4-methyl-piperazin-1-ylmethyl)-cyclohexanol] — higher, 71%
- CN1CCN(CC2CCCCCC2(O)c2ccc(C(C)(C)C)cc2)CC1 (centres unmarked) [1-(4-tert-Butyl-phenyl)-2-(4-methyl-piperazin-1-ylmethyl)-cycloheptanol] — higher, 80%
- C=CC(O)(CC)C(C)CN1CCN(C)CC1 (centres unmarked) [3-Ethyl-4-methyl-5-(4-methyl-piperazin-1-yl)-pent-1-en-3-ol] — higher, 67%
- COc1ccc(C2(O)CCCCCCC2CN2CCN(C)CC2)cc1 (centres unmarked) [1-(4-Methoxy-phenyl)-2-(4-methyl-piperazin-1-ylmethyl)-cyclooctanol] — lower, 42%
- CCC(O)(Cc1ccccc1)C(C)CN1CCN(C)CC1 (centres unmarked) [3-Benzyl-2-methyl-1-(4-methyl-piperazin-1-yl)-pentan-3-ol] — lower, 42%
- CN1CCN(CC2CCCCC2(O)C2CCCCC2)CC1 (centres unmarked) [2-(4-Methyl-piperazin-1-ylmethyl)-bicyclohexyl-1-ol] — higher, 63%
- CCC(O)(c1ccccc1C)C(C)CN1CCN(C)CC1 (centres unmarked) [2-Methyl-1-(4-methyl-piperazin-1-yl)-3-o-tolyl-pentan-3-ol] — lower, 43%
- CN1CCN(CC2CCCCCCC2(O)CCCc2ccccc2)CC1 (centres unmarked) [2-(4-Methyl-piperazin-1-ylmethyl)-1-(3-phenyl-propyl)-cyclooctanol] — higher, 87%
- CCC(O)(c1ccc(C(C)(C)C)cc1)C(C)CN1CCN(C)CC1 (centres unmarked) [3-(4-tert-Butyl-phenyl)-2-methyl-1-(4-methyl-piperazin-1-yl)-pentan-3-ol] — higher, 68%
- CN1CCN(CC2CCCCCCC2(O)C2CCCC2)CC1 (centres unmarked) [1-Cyclopentyl-2-(4-methyl-piperazin-1-ylmethyl)-cyclooctanol] — lower, 48%
- Cc1cccc(C2(O)CCCCCC2CN2CCN(C)CC2)c1 (centres unmarked) [2-(4-Methyl-piperazin-1-ylmethyl)-1-m-tolyl-cycloheptanol] — lower, 44%
- CN1CCN(CC2CCCCCCC2(O)Cc2ccccc2)CC1 (centres unmarked) [1-Benzyl-2-(4-methyl-piperazin-1-ylmethyl)-cyclooctanol] — higher, 75%
- CCC(O)(c1ccc(Cl)cc1)C(C)CN1CCN(C)CC1 (centres unmarked) [3-(4-Chloro-phenyl)-2-methyl-1-(4-methyl-piperazin-1-yl)-pentan-3-ol] — higher, 59%
- CCC(O)(CCCc1ccccc1)C(C)CN1CCN(C)CC1 (centres unmarked) [3-Ethyl-2-methyl-1-(4-methyl-piperazin-1-yl)-6-phenyl-hexan-3-ol] — higher, 74%
- CN1CCN(CC2CCCCCCC2(O)c2ccc(C(C)(C)C)cc2)CC1 (centres unmarked) [1-(4-tert-Butyl-phenyl)-2-(4-methyl-piperazin-1-ylmethyl)-cyclooctanol] — higher, 64%

Same assay, conditions: radioligand; rat cerebrocortex synaptosomes; read-out: KD value for this binding site

Work on “[^3H]-Batrachotoxinin A20 α-benzoate [reference compound]” yielded a Kd of 24.6 nM.
